Measured values from BindingDB's records for doi:10.1021/jm00048a016 (National Cancer Institute-Frederick, 1994).

Molecular target: Gastrin/cholecystokinin type B receptor (Cavia porcellus)
Experiment: Tested for the 50% inhibition level against [125I]- gastrin binding to guinea pig gastric glands

EC50 | SMILES
130 nM | CSCC[C@H](NC(=O)[C@H](Cc1c[nH]c2ccccc12)NC(=O)CCC(=O)N(Cc1ccccc1)N=NCCCl)C(=O)N[C@@H](CC(=O)O)C(=O)N[C@@H](Cc1ccccc1)C(N)=O [CBS-4]
80 nM | CSCC[C@H](NC(=O)[C@H](Cc1c[nH]c2ccccc12)NC(=O)CCNC(=O)CCC(=O)N(Cc1ccccc1)N=NCCCl)C(=O)N[C@@H](CC(=O)O)C(=O)N[C@@H](Cc1ccccc1)C(N)=O [CBS-5]
